Assay results from patent US8188064B2, “Vitamin D analogs for obesity prevention and treatment” (Wisconsin Alumni Research Foundation, priority 2003, dated 2012).
Entries after “also recorded” stand apart in the source; their conditions may differ. Like-named read-outs stand apart in the source and are kept apart here.

How the values were obtained:
PPARγ2 mRNA = PPARγ2 mRNA induction by MDI in 3T3-L1 cells (RT-PCR); assay type: cell-based, murine
Description: RT-PCR was carried out as described above with 0.5 μM each primer, 2 mM MgCl2, and 1×SYBR Green master mix.

[1] = Intestinal calcium transport (everted gut sac); assay type: in vivo; settings: result in words, vitamin D deficient rat model, compared to 1α,25(OH)2D3
Procedure, shortened: (§1)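 Male weanling Sprague-Dawley rats, vitamin D-deficient, cycled through 0.47% and 0.02% Ca diets, dosed during the last 0.02% Ca week. Four ip doses ~24 h apart; serum calcium measured 24 h after last dose. First 10 cm of intestine taken for everted gut sac calcium transport.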

SCD-1 mRNA = experiment: Inhibition of SCD-1 mRNA induction in 3T3-L1 cells (RT-PCR); assay type: cell-based, murine; settings: for EC50: Mus musculus, 3T3-L1, 96 h, read-out: EC50 for inhibition of murine 3T3-L1 expression of SCD-1 mRNA; for inhibition of SCD-1 mRNA induction: result in words, MDI-treated 3T3-L1 cells; for inhibition of SCD1 mRNA induction: tested at 1×10^−8.5 M
Source text: Chomczynski, P. et al., Anal. […] NO: 4)).

[2] = Hypercalcemia / serum calcium analysis; assay type: in vivo, rat; settings: for increase in serum calcium: normal vitamin D sufficient rats, very high oral doses
[3] = Bone calcium mobilization (serum calcium on low calcium diet); assay type: in vivo, rat; settings: result in words, vitamin D deficient rat model, compared to 1α,25(OH)2D3
Procedure, shortened: as §1

C/EBPα mRNA = C/EBPα mRNA induction by MDI in 3T3-L1 cells (RT-PCR); assay type: cell-based, murine
Description: Analysis of C/EBPα was determined by PCR using murine primers (upstream=CGA GTA GGG GGA GCA AAA A (SEQ ID NO: 7); downstream=GCA AAA AGC MG GGA TTA GGA G (SEQ ID NO: 8)). RT-PCR was carried out as described above with 0.5 μM each primer, 2 mM MgCl2, and 1×SYBR Green master mix. The murine C/EBPα primers have a 60° C. annealing temperature and a 12 second extension time.

[4] = test system: Human promyelocytic leukemia (HL60) cells; experiment: HL-60 differentiation (nitro blue tetrazolium reduction); assay type: cell-based
Procedure, shortened: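 Four-day drug treatment of cells grown in RPMI-1640/10% FBS at 37 °C, 5% CO2, ethanol ≦0.2%; then NBT reduction, percent of 200 cells with black-blue formazan.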

3T3-L1 cells = experiment: Inhibition of 3T3-L1 differentiation into mature adipocytes (Oil-Red-O staining); assay type: cell-based, murine; settings: for inhibition of differentiation of 3T3-L1 cells into mature adipocytes (Oil-Red-O staining): result in words, MDI-treated cells, staining at day 10; for inhibition of differentiation of MDI-treated 3T3-L1 cells (oil-red-O staining): tested at 1×10^−8.5 M
[5] = target: T1, full-length recombinant rat vitamin D receptor (Rattus norvegicus, UniProt P13053); experiment: Vitamin D receptor binding (competition with 3H-1,25(OH)2D3); settings: result in words, competition for tritiated hormone binding
T1 construct: Full-length recombinant rat receptor was expressed in E. coli; histidine tag (C); made in house; host or cells: E. coli BL21(DE3) Codon Plus RIL
T1 sequence (P13053 1-423): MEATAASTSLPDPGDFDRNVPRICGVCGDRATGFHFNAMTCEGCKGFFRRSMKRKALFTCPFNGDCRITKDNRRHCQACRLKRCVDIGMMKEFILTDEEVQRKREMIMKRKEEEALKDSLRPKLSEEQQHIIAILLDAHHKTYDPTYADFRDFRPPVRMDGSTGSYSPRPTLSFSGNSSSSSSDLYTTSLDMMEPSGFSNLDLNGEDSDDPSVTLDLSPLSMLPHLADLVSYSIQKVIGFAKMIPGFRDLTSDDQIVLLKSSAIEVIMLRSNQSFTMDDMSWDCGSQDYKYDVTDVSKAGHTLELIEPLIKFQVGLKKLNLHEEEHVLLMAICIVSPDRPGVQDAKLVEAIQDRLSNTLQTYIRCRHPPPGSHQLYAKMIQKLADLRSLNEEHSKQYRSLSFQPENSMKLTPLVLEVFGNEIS
Procedure, shortened: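 Purified His-tagged receptor from E. coli, diluted in TEDK50 (pH 7.4, 5 mM DTT, 150 mM KCl) with 0.1% Chaps, set so ≤20% of radioligand bound. Competition against 1 nM final 3H-1,25(OH)2D3, ethanol ≤10%, overnight on ice; bound ligand collected on hydroxylapatite, washed, counted by scintillation.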

[6] = test system: 24-hydroxylase (24Ohase) gene promoter in ROS 17/2.8 (bone) cells; experiment: In vitro transcription assay (luciferase reporter); assay type: cell-based; settings: less active than 1α,25-(OH)2D3
Description: Transcription activity was measured in ROS 17/2.8 (bone) cells that were stably transfected with a 24-hydroxylase (24Ohase) gene promoter upstream of a luciferase reporter gene (Arbour et al., 1998). Cells were given a range of doses. Sixteen hours after dosing the cells were harvested and luciferase activities were measured using a luminometer. RLU=relative luciferase units.

[7] = test system: parathyroid hormone (PTH); experiment: PTH suppression (serum PTH); assay type: in vivo, rat; settings: result in words; normal/adult rats
Description: Adult, female Sprague-Dawley rats were obtained from Harlan (Madison, Wis.).
Upon receipt, the animals were identified by individual tail marks. Animals were housed in suspended, stainless steel, wire-bottom cages. Each cage contained one animal. The animal rooms were maintained at a temperature of 68 to 72° F. and a relative humidity of 25 to 75%. The holding rooms were set to provide 12 hours of light per day. Water and a purified rodent diet (Suda et al., Purified Rodent Diet-Diet 11) containing […] 0.3% phosphorus and fat soluble vitamins A, D, E and K were provided ad libitum.
Animals were randomly assigned to treatment groups (5 animals/group). All doses were administered intraperitoneally in 100 microliters of propylene glycol. Four to seven consecutive doses were given approximately 24 hours apart. Dosing was initiated after the animals had been allowed to acclimate for at least one week.
Both control and test articles were administered by intraperitoneal injection in 100 microliters for 4-7 consecutive days spaced approximately 24 hours apart. 1,25(OH)2D3 was given for 4 consecutive days, whereas, the test drugs were given for 7 consecutive days.
Twenty-four hours after the final dose, blood was collected from the tail artery and the concentration of bioactive serum PTH was measured using the rat BioActive Intact PTH ELISA Kit from Immutopics, Inc. (San Clemente, Calif.).

Question: With `C=C1/C(=C\C=C2/CCC[C@]3(C)[C@@H]([C@H](C)CCCC(C)(C)O)CC[C@@H]23)C[C@@H](O)C[C@@H]1O` [1α,25(OH)2D3, 1α,25-dihydroxyvitamin D3, reference compound] as the molecule, how does the “PPARγ mRNA induction by MDI” value (PPARγ2 mRNA; compound present at 1×10^−8 M) read?
Answer: not induced

Question: And the “intestinal calcium transport activity” value ([1]; listed as calcitriol)?
Answer: quite potent; also recorded: active

Question: And the EC50 (SCD-1 mRNA)?
Answer: 0.2 nM

Question: What about the “inhibition of SCD-1 mRNA induction” value (SCD-1 mRNA) of the same molecule?
Answer: inhibition

Question: And the “increase in serum calcium” value [2]?
Answer: frank hypercalcemia and even death

Question: What about the “bone calcium mobilization activity” value ([3]; listed as calcitriol) of the same molecule?
Answer: quite potent; also recorded: active

Question: What about the “C/EBPα mRNA induction by MDI” value (C/EBPα mRNA; compound present at 1×10^−8 M) of the same molecule?
Answer: not induced

Question: What about the “cells induced to differentiate in the NBT assay” value ([4]; concentration 1×10^−7 M) of the same molecule?
Answer: ~90%

Question: What about the “inhibition of differentiation of 3T3-L1 cells into mature adipocytes (Oil-Red-O staining)” value (3T3-L1 cells) of the same molecule?
Answer: inhibit; also recorded: inhibition

Question: With `C=C1[C@H](O)CC(=C/C=C2\CCC[C@]3(C)[C@@H]([C@@H](C)CCCC(C)(C)O)CC[C@@H]23)C[C@H]1O` [2-MD] as the molecule, how does the “PPARγ mRNA induction by MDI” value (PPARγ2 mRNA; compound present at 1×10^−10 M) read?
Answer: prevented these mRNAs from being upregulated; also recorded: not induced

Question: What about the “intestinal calcium transport activity” value [1] of the same molecule?
Answer: active

Question: And the EC50 (SCD-1 mRNA; SCD-1 mRNA at 4 days)?
Answer: ~0.0029 nM

Question: What about the “times more potent than the native hormone calcitriol” value (SCD-1 mRNA; inhibition of 3T3-L1 differentiation (FIG. 2 and FIG. 3)) of the same molecule?
Answer: at least 70 times

Question: And the “binding to the vitamin D receptor, compared to 1α,25(OH)2D3” value (“binding … compared to 1α,25(OH)2D3” below) [5]?
Answer: as well as the native hormone

Question: And the “bone calcium mobilization activity” value [3]?
Answer: active

Question: What about the “C/EBPα mRNA induction by MDI” value (C/EBPα mRNA; compound present at 1×10^−10 M) of the same molecule?
Answer: prevented these mRNAs from being upregulated; also recorded: not induced

Question: And the “inhibition of differentiation of 3T3-L1 cells into mature adipocytes (Oil-Red-O staining)” value (3T3-L1 cells)?
Answer: highest activity; also recorded: so much greater; also recorded: inhibit

Question: With `C=C1[C@H](O)CC(=C/C=C2\CCC[C@]3(C)[C@@H]([C@@H](C)CC)CC[C@@H]23)C[C@H]1O` [2-MbisP] as the molecule, how does the “PPARγ mRNA induction by MDI” value (PPARγ2 mRNA; compound present at 1×10^−8 M) read?
Answer: not induced

Question: And the “intestinal calcium transport activity” value [1]?
Answer: little, if any, activity

Question: And the EC50 (SCD-1 mRNA; SCD-1 mRNA at 4 days)?
Answer: ~0.54 nM

Question: What about the “times less potent than the native hormone 1,25-(OH)2D3” value (SCD-1 mRNA; inhibition of SCD-1 mRNA induction) of the same molecule?
Answer: 2 to 3 times

Question: What about the “inhibition of SCD-1 mRNA induction” value (SCD-1 mRNA; listed as (1α,20S)2MbisP) of the same molecule?
Answer: inhibition

Question: And the “inhibition of SCD-1 mRNA induction” value (SCD-1 mRNA; listed as (20S)2-MbisP)?
Answer: nearly as potent as the native hormone

Question: What about the “inhibition of SCD1 mRNA induction” value (SCD-1 mRNA) of the same molecule?
Answer: active

Question: And the “increase in serum calcium” value [2]?
Answer: without producing an increase in serum calcium

Question: What about the “binding … compared to 1α,25(OH)2D3” value ([5]; listed as 1α-(20S)2-MbisP) of the same molecule?
Answer: nearly the same affinity

Question: What about the “binding … compared to 1α,25(OH)2D3” value ([5]; listed as (20S)2-MbisP) of the same molecule?
Answer: as or nearly effective as calcitriol

Question: What about the “bone calcium mobilization activity” value [3] of the same molecule?
Answer: little, if any, activity

Question: And the “C/EBPα mRNA induction by MDI” value (C/EBPα mRNA; compound present at 1×10^−8 M)?
Answer: not induced

Question: What about the “difference in potency from the native hormone in inhibiting differentiation” value (3T3-L1 cells; MDI-induced 3T3-L1 cells) of the same molecule?
Answer: < 0.5 log unit

Question: And the “inhibition of differentiation of 3T3-L1 cells into mature adipocytes (Oil-Red-O staining)” value (3T3-L1 cells)?
Answer: inhibit; also recorded: effective

Question: What about the “inhibition of differentiation of 3T3-L1 cells into mature adipocytes (Oil-Red-O staining)” value (3T3-L1 cells; listed as 1α-(20S)2-MbisP) of the same molecule?
Answer: nearly equipotent

Question: And the “inhibition of differentiation of 3T3-L1 cells into mature adipocytes (Oil-Red-O staining)” value (3T3-L1 cells; listed as (1α,20S)2MbisP)?
Answer: inhibition

Question: What about the “inhibition of differentiation of 3T3-L1 cells into mature adipocytes (Oil-Red-O staining)” value (3T3-L1 cells; listed as (20S)2-MbisP) of the same molecule?
Answer: nearly as potent as the native hormone

Question: And the “inhibition of differentiation of 3T3-L1 cells into mature adipocytes (Oil-Red-O staining)” value (3T3-L1 cells; listed as (20S)2M-bisP)?
Answer: inhibition

Question: What about the “inhibition of differentiation of 3T3-L1 cells into mature adipocytes (Oil-Red-O staining)” value (3T3-L1 cells; listed as (20S)2MbisP) of the same molecule?
Answer: inhibition

Question: And the “inhibition of differentiation of MDI-treated 3T3-L1 cells (oil-red-O staining)” value (3T3-L1 cells)?
Answer: active

Question: What does the source list for `C=C1[C@H](O)CC(=C/C=C2\CCC[C@]3(C)[C@@H]([C@H](C)CC)CC[C@@H]23)C[C@H]1O` [(20R)2MbisP]?
Answer: intestinal calcium transport activity [1]: does not support; intestinal calcium transport activity ([1]; listed as (20R)2-MbisP): less activity; inhibition of SCD1 mRNA induction (SCD-1 mRNA): active; transcription of reporter gene coupled to the CYP-24 promoter, times less active than 1α,25-(OH)2D3 [6]: about 5 times; hypercalcemia in adult rats ([2]; doses as high as 45 nmol/day): failed to cause hypercalcemia; suppression of parathyroid hormone (PTH) [7]: considerable activity; binding to the vitamin D receptor, compared to 1α,25(OH)2D3 [5]: approximately equally effective; bone calcium mobilization activity [3]: does not support; bone calcium mobilization activity ([3]; listed as (20R)2-MbisP): very little bone calcium mobilization activity; differentiation of HL-60 cells, times less active than 1α,25(OH)2D3 ([4]; less active than 1α,25(OH)2D3): about 5 times; inhibition of differentiation of 3T3-L1 cells into mature adipocytes (Oil-Red-O staining) (3T3-L1 cells): nearly equipotent; inhibition of differentiation of MDI-treated 3T3-L1 cells (oil-red-O staining) (3T3-L1 cells): active
